# A melting point compilation (Tetko et al.; mined from patent text by program, amines drawn as free bases though some values may be those of a salt)
row,Structure (SMILES),melting point [°C]
1,C=C1CSC(=C(C#N)n2ccnc2)S1,116
2,COc1cc(C(=O)P2(=O)Oc3ccccc3-c3ccccc32)cc(OC)c1OC (centres undefined),147 to 149
3,CCOC(=O)c1cn(C)c2cc(C(C)(C)C)ccc2c1=O,138 to 140
4,Cc1noc(NS(=O)(=O)c2sccc2Cc2ccccc2)c1Br,180 to 183
5,CCCc1ccc(OCc2ccc(OCc3nc(-c4ccccc4)oc3C)cc2)cc1OCC(=O)OC,100 to 101
6,CCCCCCC(=O)Oc1cc(-c2nc3ccccc3[nH]c2=O)cc([N+](=O)[O-])c1OC(=O)CCCCCC,186 to 188
7,CC#CC(C)Oc1cc(N)c(Cl)cc1C(=O)O (centres undefined),114 to 116
8,COc1cc(NS(C)(=O)=O)c(I)cc1N,110 to 112
9,O=C(c1cc2cc(Br)ccc2o1)C12CC3CC(CC(C3)C1)C2,115 to 117
10,COc1ccc(CCC(=O)CC(=O)CCc2ccc(OC)cc2)cc1,73.5 to 76.2
11,CC(C)n1nc(-c2nc(C3=CCN(C)CC3)c(N)nc2-c2ccccc2)ccc1=O,209 to 211
12,Cc1ccc(S(=O)(=O)C2(CC#Cc3ccc(Cl)cc3)SC(=O)NC2=O)cc1 (centres undefined),172 to 174
13,COc1cc(OC)c(C(C)=O)cc1OC,91 to 93
14,CC(=O)NC(Cc1ccc(CC(=O)OC(C)(C)C)cc1)C(=O)OCc1ccccc1 (centres undefined),170 to 172
15,C=CCc1ccc(OCC(O)CO)c(OC)c1 (centres undefined),77 to 79
16,Cc1c(C2CCC(Cc3ccccc3)(N(C)C)CC2)[nH]c2ccc(C(F)(F)F)cc12 (centres undefined),166 to 174
17,CC(C)NC(=O)N1CCC(O[N+](=O)[O-])CC1,93 to 95
18,CC(C)CCCOC1CCC2C3C(=O)C=C4CC(O[Si](C)(C)C(C)(C)C)CCC4(C)C3CCC12C (centres undefined),143 to 145
19,"COc1ccc(Br)c2c1CC(NC(C1CC1)C1CC1)CC2 (single isomer, unassigned; (-))",153 to 154
20,CN(C)CCCNCC(O)C(O)C(O)C(O)CO (centres undefined),107 to 108
21,CC(C)CC(=O)C(=O)OCc1ccccc1,98 to 100
22,COc1cc(C(=O)n2ccnc2)cc([N+](=O)[O-])c1OC,136 to 137

# Other lines, results leading:
row,melting point [°C],Structure (SMILES)
1,> 300,Nc1ccc2c3c1c(=O)c(C(=O)O)cn3CCC2
2,220 to 222,COc1cccc2c(=O)n(S(=O)(=O)c3ccc(Cl)cc3)c(=O)[nH]c12
3,133 to 135,COc1nc(C)c(C)nc1N(C)C(=O)N1CCN(c2cc([N+](=O)[O-])cc([N+](=O)[O-])c2)CC1
4,32,CCCCCCCC1(CCCCCCC)c2ccccc2-c2ccc(Br)cc21
5,162 to 163,CC(C)c1nc(CN2C(=O)C3(COc4cc5c(cc43)OCO5)c3cccc(C#N)c32)cs1 (centres undefined)
6,213 to 214,Cc1cc(-c2nc3cccnn3c2-c2ccnc(NC(=O)NCC(C)C)c2)ccc1F
7,206,N#CC(c1ccc(Cl)cc1)c1ccc(-n2ncc(=O)[nH]c2=O)cc1 (centres undefined)
8,240 to 242,Cc1cc2c(cc1Cl)C=C(C(=O)O)C(C(F)(F)F)S2 (centres undefined)
9,68 to 69.5,O=C(c1cccc(F)c1)N1CC2CC2(c2ccccc2)C1 (centres undefined)
10,115 to 120,CN1C(=O)C(CC(NC(=O)c2ccc(Cl)cc2)C(=O)O)c2ccccc21 (centres undefined)
11,281 to 283,O=c1[nH]c2ncc(-c3ccc(-c4n[nH]c(CN5CCOCC5)n4)cc3)nc2n1CC1CCOCC1
12,248 to 250,COc1ccc2nccc(NC(=O)N3CCN(CCc4ccc5c(c4)NC(=O)CS5)CC3)c2n1
13,56 to 61,c1ccc(COc2ccc([C@H]3CO3)cc2)cc1
14,85 to 90,COc1ccc(-c2ccncc2)c(C)n1
15,186 to 188,NC(=O)CN1C(=O)CC2Cc3c(Cl)cccc3C21 (centres undefined)
16,130,CN(C)C(=O)Sc1ccccc1C(=O)c1ccccc1C#N
17,128 to 129,O=C(Cc1ccc2ccn(C3CCN(CCc4ccccc4F)CC3)c2c1)NCCO
18,184 to 189,Nc1ccc(C(=O)N2CCOCC2)cc1[N+](=O)[O-]
19,52 to 54,CCOC(=O)c1sc(Oc2ccccc2)nc1C(F)(F)F
20,82 to 85,CNC(=O)c1cc(Oc2ccc(NC(=O)Nc3ccc(Cl)c(C(F)(F)F)c3)cc2)ccn1
21,145,FC(F)(F)c1cccc(N2CCN(c3ccc(I)nn3)CC2)c1
22,227 to 229,CC1=C(C#N)C(c2cccc3ncc(-c4ccccc4)cc23)C(C(=O)OC(C)C)=C(N)N1 (centres undefined)
23,76 to 77,Oc1cccc(OCCCC(O)(O)C(F)(F)F)c1
24,166 to 168,CC(=O)N1CCN(c2cc3nc(C(C)(C)C)sc3cc2[N+](=O)[O-])CC1
25,134 to 137,CCCc1ccnc2c(=O)[nH]c(-c3ccccc3OCC)nc12
26,63 to 89,Cn1nc2c(-c3ccc(Cl)cc3Cl)cccc2c1-n1ccnc1
27,204 to 205,Cc1ccc(N2CCN(Cc3c[nH]c4ncccc34)CC2)nc1
